The text below walks through data of ChEMBL document CHEMBL1221363, “Cytotoxicity of new pyrazino[1,2-b]isoquinoline and 6,15-iminoisoquino[3,2-b]3-benzazocine compounds” (2010).

What all share (type): functional
The test system of experiment [1] is A549. Put plainly: Cytotoxicity against human A549 cells after 48 hrs by SRB assay. The conditions noted are these: A549, 48 h. Background: Sulforhodamine B stains cellular protein and so reports cell mass.
Experiment [2] concerns HT-29. Put plainly: Cytotoxicity against human HT-29 cells after 48 hrs by SRB assay. To be noted: HT-29, 48 h.
Experiment [3] has as its system MDA-MB-231. Put plainly: Cytotoxicity against human MDA-MB-231 cells after 48 hrs by SRB assay. To be noted: MDA-MB-231, 48 h; for CC50: read-out: LC50 (the source's name).

Bounds are passed on as bounds.

By GI50 is commonly meant the concentration giving 50% growth inhibition. What is called TGI is the concentration at which net growth stops. Low values mean greater sensitivity of the cells, high ones lower sensitivity of the cells. Usually LC50 stands for the concentration that kills 50% of the test population. Lower therefore signals a more lethal substance.

With `COc1c(C)c(OC)c(OC)c2c1C[C@H]1CN(Cc3ccc4ccccc4c3[N+](=O)[O-])CC(=O)N1[C@H]2COCc1ccccc1` (relative stereo), in experiment [1], the GI50 is greater than 16.3 µM, the LC50 (concentration causing 50% net cell kill) is greater than 16.3 µM and the TGI is greater than 16.3 µM. In experiment [2], this compound displayed a GI50 of 4.06 µM, an LC50 of 17.8 µM and a TGI of 9.48 µM. For the same compound, in experiment [3], the GI50 was determined as 8.01 µM, the TGI is greater than 16.3 µM and the CC50 was greater than 16.3 µM.
In experiment [1], `COc1c(C)c(OC)c(OC)c2c1C[C@H]1[C@@H]3N[C@@H](Cc4ccccc43)C(=O)N1[C@H]2COC(=O)c1cccc2ccccc12` (relative stereo) yielded a 50% growth inhibitory concentration (GI50) of 13.3 µM, an LC50 (concentration causing 50% net cell kill) greater than 17.3 µM and a TGI greater than 17.3 µM. In experiment [2], this compound showed a GI50 greater than 18.9 µM, an LC50 greater than 18.9 µM and a TGI greater than 18.9 µM. Moreover, in experiment [3], the GI50 turned out to be 8.64 µM, the TGI is greater than 17.3 µM and the CC50 was greater than 17.3 µM.
Regarding `COc1c(C)c(OC)c(OC)c2c1C[C@H]1[C@@H]3c4c(c(OC)c(C)c(OC)c4OC)C[C@H](C(=O)N1C2COC(=O)c1cccc2ccccc12)N3C` (relative stereo), in experiment [1], the GI50 worked out at 6.17 µM, the LC50 (concentration causing 50% net cell kill) was greater than 14.4 µM and the concentration for total growth inhibition (TGI) was greater than 14.4 µM. In experiment [2], it took 6.88 µM to inhibit growth by half (GI50), the 50% lethal concentration (LC50) was greater than 14.6 µM and the TGI was greater than 14.6 µM. Moreover, in experiment [3], the 50% growth inhibitory concentration (GI50) was 7.46 µM, the total growth inhibition concentration (TGI) is greater than 14.4 µM and the CC50 is greater than 14.4 µM.
In experiment [1], `COc1c(C)c(OC)c(OC)c2c1C[C@H]1[C@H]3c4ccccc4C[C@@H]([C@H](C#N)N1[C@H]2CO)N3C` (relative stereo) gave a GI50 of 5.78 µM, an LC50 (concentration causing 50% net cell kill) of 18.7 µM and a TGI of 12 µM. Further, in experiment [2], the GI50 was determined as 5.17 µM, the LC50 is greater than 14.4 µM and the TGI was greater than 14.4 µM. In addition, in experiment [3], the GI50 came to 7.65 µM, net growth stopped (TGI) at 12.9 µM and the CC50 was 18.7 µM.
As to `COc1cc2c(cc1O)CCN[C@]21CS[C@@H]2c3c(OC(C)=O)c(C)c4c(c3[C@H](COC1=O)N1[C@@H]2[C@H]2c3c(cc(C)c(OC)c3O)C[C@@H]([C@@H]1O)N2C)OCO4` [TRABECTEDIN], in experiment [1], growth was halved (GI50) at 0.00281 µM and the TGI was found to be 0.00315 µM. In experiment [2], this compound displayed a GI50 of 2.47 µM and a TGI of 2.93 µM. Also, in experiment [3], the GI50 amounted to 0.000396 µM, the TGI was determined as 0.00101 µM and the CC50 was determined as 0.0017 µM.
